The target in one test is BTK (Homo sapiens (Human), UniProt Q06187). As to the kind of experiment: ADP-Glo kinase biochemical assay, IC50 determination of BTK inhibitors. As to conditions: for IC50: ADP-Glo, ATP 50 uM, values given as bins. The procedure:
Biological Properties: IC50 Determination of BTK Inhibitors in ADP-Glo Kinase Biochemical Assay
Those skilled in the art will appreciate that a variety of assay formats may be used to determine the activity of the compounds described herein.
ADP-Glo™ Kinase Assay (Cat. V9102, 10000 Tests), Components: • 1×50 ml ADP-Glo™ Reagent, • 1×100 ml Kinase Detection Buffer, • 1× Kinase Detection Substrate (Lyophilized), • 1×5 ml Ultra Pure ATP, 10 mM • 1×5 ml ADP, 10 mM
• Enzyme concentration: 8 ng/5 ul. • ATP concentration: 50 uM • Substrate (peptide) concentration: 0.2 mg/ml. • Reaction buffer composition: 40 mM Tris-HCl pH7.5, 10 mM MgCl2, 2 mM MnCl2, 0.1 mg/mL BSA, 0.05 mM DTT. • Test compound concentration: DMSO≤0.5%. Methods: Compound Dosage Gradient Solution Preparation: […]
1× and 2× assay buffer were made at first. BTK kinase was diluted with 1× assay buffer but substrate was diluted with 2× assay buffer. 1 ul of diluted compound was transferred into 384-well assay plate, and then 2.0 ul of enzyme solution was added, and spun at 2000 rpm for 1 min. This mixture was incubated at 24° C. for 30 mins. 2 ul of peptide substrate/ATP mixture was added into the assay plate to start the reaction. The mixture was mixed thoroughly and then the 384-well plate was spun and incubated at 24° C. for 60 mins. 5.0 ul of ADP-Glo Reagent was added to stop the kinase activity and deplete the ATP unconsumed, and the plate was mixed thoroughly and incubated at 24° C. for 40 min. Then, 10.0 ul of Kinase Detection reagent was added, and the plate was centrifuged and then kept at 24° C. for 30 min. The luminescence signal was read on Envision.
IC50 values of compounds were calculated from a 4-parameter fit using Equation (2): Y=Bottom+(TOP-Bottom)/(1+((C/X)^hillslope)) Equation (2)
In Equation 2, Y represents % inhibition, X is the log value of the test compound concentration. IC50 was the concentration of compound where half of maximal inhibition was achieved.
All data was analyzed with IDBS XLfit5 software (ID Business Solutions Ltd., UK).

For another test, the target named is SRC (Homo sapiens (Human), UniProt P12931). The test is described as follows: kinase competition binding screen (liganded affinity beads, qPCR) at 1000 nM. To be noted: BTK versus SRC. Background: In qPCR the cycle at which signal appears reflects the starting amount.
Chain of SRC (P12931 whole entry, looked up): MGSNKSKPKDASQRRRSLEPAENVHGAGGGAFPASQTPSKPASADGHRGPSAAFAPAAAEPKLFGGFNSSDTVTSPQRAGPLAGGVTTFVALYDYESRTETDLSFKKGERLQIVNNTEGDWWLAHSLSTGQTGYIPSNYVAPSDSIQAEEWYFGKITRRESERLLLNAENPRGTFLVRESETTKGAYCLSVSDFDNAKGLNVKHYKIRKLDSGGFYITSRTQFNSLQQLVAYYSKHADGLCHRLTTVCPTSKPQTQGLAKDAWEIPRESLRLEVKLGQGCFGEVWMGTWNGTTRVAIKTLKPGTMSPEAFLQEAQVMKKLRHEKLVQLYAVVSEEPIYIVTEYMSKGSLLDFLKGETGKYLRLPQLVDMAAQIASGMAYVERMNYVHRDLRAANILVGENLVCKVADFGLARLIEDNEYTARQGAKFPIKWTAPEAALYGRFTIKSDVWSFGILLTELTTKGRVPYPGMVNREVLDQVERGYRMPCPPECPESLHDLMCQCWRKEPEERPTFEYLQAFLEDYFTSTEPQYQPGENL

Bounds are passed on as bounds.

Chain of BTK (Q06187 whole entry): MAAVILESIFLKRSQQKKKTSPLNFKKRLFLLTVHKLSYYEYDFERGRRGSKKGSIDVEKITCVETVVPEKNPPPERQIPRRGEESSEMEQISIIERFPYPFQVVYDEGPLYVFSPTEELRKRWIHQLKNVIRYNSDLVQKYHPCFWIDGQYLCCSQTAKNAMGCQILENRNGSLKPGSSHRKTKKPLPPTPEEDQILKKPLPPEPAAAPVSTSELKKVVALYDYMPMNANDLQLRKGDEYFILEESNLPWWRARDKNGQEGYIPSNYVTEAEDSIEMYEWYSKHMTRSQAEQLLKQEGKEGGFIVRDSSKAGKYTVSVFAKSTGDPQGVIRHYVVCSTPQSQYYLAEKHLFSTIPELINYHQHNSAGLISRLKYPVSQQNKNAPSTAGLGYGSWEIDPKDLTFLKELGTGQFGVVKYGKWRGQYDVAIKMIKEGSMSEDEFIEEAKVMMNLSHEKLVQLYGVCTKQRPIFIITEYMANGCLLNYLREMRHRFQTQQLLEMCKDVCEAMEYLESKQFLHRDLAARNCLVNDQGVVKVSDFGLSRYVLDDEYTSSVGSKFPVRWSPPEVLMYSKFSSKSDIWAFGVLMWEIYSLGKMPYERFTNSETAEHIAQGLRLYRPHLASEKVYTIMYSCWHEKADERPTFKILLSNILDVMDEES

By IC50 is commonly meant the concentration at which inhibition is half-maximal. Read a high IC50 as lower potency. `C=CC(=O)N1CCN(c2ccc(C(N)=O)c(-c3ccc(Oc4ccccc4)cc3)n2)CC1` [Example 5, 6-(4-acryloylpiperazin-1-yl)-2-(4-phenoxyphenyl)nicotinamide] displayed an IC50 at BTK of less than 500 nM. Further, the “improvement in potency over Analogs 1 and 2” value at BTK (BTK, head-to-head assays) is on record as approximately 100 ×. Also, the “Fold Difference” value on SRC is more than 100x. `C=CC(=O)N1CCC(n2cc(C(N)=O)c(-c3ccc(Oc4ccccc4)cc3)n2)CC1` [Example 12, 1-(1-acryloylpiperidin-4-yl)-3-(4-phenoxyphenyl)-1H-pyrazole-4-carboxamide] showed a half-inhibitory concentration (IC50) at BTK of less than 500 nM. Still for that read-out and setting: the figure for `C=CC(=O)N1CCC(c2nc(C(N)=O)c(-c3ccc(Oc4ccccc4)cc3)s2)C1` (centres unmarked) [Example 44, 2-(1-acryloylpyrrolidin-3-yl)-5-(4-phenoxyphenyl)thiazole-4-carboxamide] is less than 500 nM. Same read-out and setting: the figure for `C=CC(=O)N1CCCC(n2cc(C(N)=O)c(-c3ccc(Oc4ccccc4)cc3)n2)C1` (centres unmarked) [Example 11, 1-(1-acryloylpiperidin-3-yl)-3-(4-phenoxyphenyl)-1H-pyrazole-4-carboxamide] is less than 500 nM; for `C=CC(=O)N1CCN(c2ccc(C(N)=O)c(-c3ccc(F)c(OC)c3)n2)CC1` [Example 30, 6-(4-acryloylpiperazin-1-yl)-2-(4-fluoro-3-methoxyphenyl)nicotinamide] it is not below 1000 nM; for `C=CC(=O)NC1CCN(c2ccc(C(N)=O)c(-c3ccc(Oc4ccccc4)cc3)n2)C1` (centres unmarked) [Example 10, 6-(3-acrylamidopyrrolidin-1-yl)-2-(4-phenoxyphenyl)nicotinamide] it is less than 500 nM. With `C=CC(=O)N1CCC(c2nc(-c3ccc(Oc4ccccc4)cc3)c(C(N)=O)s2)CC1` [Example 52, 2-(1-acryloylpiperidin-4-yl)-4-(4-phenoxyphenyl)thiazole-5-carboxamide], the IC50 against BTK is less than 500 nM. Same read-out and setting: under `C=CC(=O)Nc1cccc(-n2cc(C(N)=O)c(-c3ccc(Oc4ccccc4)cc3)n2)c1` [Example 18, 1-(3-acrylamidophenyl)-3-(4-phenoxyphenyl)-1H-pyrazole-4-carboxamide] stands less than 500 nM. The same measure, in the same setting: under `C=CC(=O)N1CCC(n2cc(C(N)=O)c(-c3ccc(Oc4ccccc4)cc3)n2)C1` (centres unmarked) [Example 13, 1-(1-acryloylpyrrolidin-3-yl)-3-(4-phenoxyphenyl)-1H-pyrazole-4-carboxamide] stands less than 500 nM. The compound `C=CS(=O)(=O)N1CCN(c2ccc(C(N)=O)c(-c3ccc(Oc4ccccc4)cc3)n2)CC1` [Example 62, 2-(4-phenoxyphenyl)-6-(4-(vinylsulfonyl)piperazin-1-yl)nicotinamide] returned an IC50 at BTK of less than 500 nM. For the compound `C=CC(=O)N1CCCC(c2nc(-c3ccc(Oc4ccccc4)cc3)c(C(N)=O)o2)C1` (centres unmarked) [Example 42, 2-(1-acryloylpiperidin-3-yl)-4-(4-phenoxyphenyl)oxazole-5-carboxamide], the IC50 against BTK was less than 500 nM.

`C=CC(=O)N1CCC(c2nc(-c3ccc(Oc4ccccc4)cc3)c(C(N)=O)s2)C1` (centres unmarked) [Example 41, 2-(1-acryloylpyrrolidin-3-yl)-4-(4-phenoxyphenyl)thiazole-5-carboxamide] displayed an IC50 against BTK of less than 500 nM. `C=CC(=O)N1CCC(c2cc(C(N)=O)nn2-c2ccc(Oc3ccccc3)cc2)CC1` [Example 56, 5-(1-acryloylpiperidin-4-yl)-1-(4-phenoxyphenyl)-1H-pyrazole-3-carboxamide]: the 50% inhibitory concentration (IC50) at BTK is not below 1000 nM. `C=CC(=O)N1CCN(c2ccc(C(N)=O)c(-c3ccc(Oc4ccccc4)cc3F)n2)CC1` [Example 39, 6-(4-acryloylpiperazin-1-yl)-2-(2-fluoro-4-phenoxyphenyl)nicotinamide] came in with an IC50 against BTK of less than 500 nM. On the same count and under the same terms, under `NC(=O)c1ccc(N2CCNCC2)nc1-c1ccc(Oc2ccccc2)cc1` [Example 4, 2-(4-phenoxyphenyl)-6-(piperazin-1-yl)nicotinamide] stands not below 1000 nM; under `C=CC(=O)N1CCN(c2ccc(C(N)=O)c(-c3ccc(Oc4ccccc4)nc3)n2)CC1` [Example 31, 6-(4-acryloylpiperazin-1-yl)-6′-phenoxy-2,3′-bipyridine-3-carboxamide], 500 to 1000 nM; under `C=CC(=O)N1CCN(c2ccc(C(N)=O)c(-c3ccc(Oc4cccc(F)c4)cc3)n2)CC1` [Example 35, 6-(4-acryloylpiperazin-1-yl)-2-(4-(3-fluorophenoxy)phenyl)nicotinamide], less than 500 nM. On the same count and under the same terms, under `C=CC(=O)N1CCC(c2ccc(C(N)=O)c(-c3ccc(Oc4ccccc4)cc3)n2)C1` (centres unmarked) [Example 23, 6-(1-acryloylpyrrolidin-3-yl)-2-(4-phenoxyphenyl)pyridine-3-carboxamide] stands less than 500 nM; under `C=CC(=O)Nc1cccc(-c2ccc(C(N)=O)c(-c3ccc(Oc4ccccc4)cc3)n2)c1` [Example 1, 6-(3-acrylamidophenyl)-2-(4-phenoxyphenyl)nicotinamide], less than 500 nM; under `C=CC(=O)N1CCC(c2nc(C(N)=O)c(-c3ccc(Oc4ccccc4)cc3)s2)CC1` [Example 49, 2-(1-acryloylpiperidin-4-yl)-5-(4-phenoxyphenyl)thiazole-4-carboxamide], less than 500 nM. Same read-out and setting: the figure for `C=CC(=O)N1CCC(c2ncc(C(N)=O)c(-c3ccc(Oc4ccccc4)cc3)n2)C1` (centres unmarked) [Example 22, 2-(1-acryloylpyrrolidin-3-yl)-4-(4-phenoxyphenyl)pyrimidine-5-carboxamide] is less than 500 nM. Turning to `C=CC(=O)N1CCN(c2ccc(C(N)=O)c(-c3ccc(Cl)cc3)n2)CC1` [Example 33, 6-(4-acryloylpiperazin-1-yl)-2-(4-chlorophenyl)nicotinamide], the half-inhibitory concentration (IC50) against BTK was not below 1000 nM. On the same count and under the same terms, under `C=CC(=O)N1CCC(c2ccc(C(N)=O)c(-c3ccc(C(=O)Nc4ccccc4)cc3)n2)CC1` [Example 61, 6-(1-acryloylpiperidin-4-yl)-2-(4-(phenylcarbamoyl)phenyl)nicotinamide] stands less than 500 nM; under `N#CCC(=O)N1CC(n2cc(C(N)=O)c(-c3ccc(Oc4ccccc4)cc3)n2)C1` [Example 50, 1-(1-(2-cyanoacetyl)azetidin-3-yl)-3-(4-phenoxyphenyl)-1H-pyrazole-4-carboxamide], not below 1000 nM.

`C=CC(=O)N1CCC(c2ccc(C(N)=O)c(-c3ccc(Oc4ccccc4)cc3)c2)CC1` [Example 55, 5-(1-acryloylpiperidin-4-yl)-4′-phenoxybiphenyl-2-carboxamide] registered an IC50 at BTK of less than 500 nM. Still for that read-out and setting: the figure for `C=CC(=O)Nc1ccc(-c2ccc(C(N)=O)c(-c3ccc(Oc4ccccc4)cc3)n2)cc1` [Example 7, 6-(4-acrylamidophenyl)-2-(4-phenoxyphenyl)nicotinamide] is less than 500 nM; for `C=CC(=O)N1CCCC(c2nc(C(N)=O)c(-c3ccc(Oc4ccccc4)cc3)s2)C1` (centres unmarked) [Example 45, 2-(1-acryloylpiperidin-3-yl)-5-(4-phenoxyphenyl)thiazole-4-carboxamide] it is less than 500 nM.
